In the oligonucleotide strings, read from the 5' end, every base follows the letter of its sugar. An asterisk marks phosphorothioate; unmarked linkages are phosphodiester. Other units and linkages are bracketed, terminal groups are in braces. A string of capitals states the bases alone. e = 2'-O-(2-methoxyethyl) (MOE); [5mC] = 5-methylcytosine; d = 2'-deoxy (DNA)
Assays:
[1] = tested on: human p38α mRNA; assay: Inhibition of human p38α mRNA expression in Jurkat cells, Northern blot; type: cell-based
Procedure: (§1) The human Jurkat T-cell line (American Type Culture Collection, Manassas, Va.) was maintained in RPMI 1640 growth media supplemented with 10% fetal bovine serum (FBS; Hyclone, Logan, Utah). HUVEC cells (Clonetics, San Diego, Calif.) were cultivated in endothelial basal media supplemented with 10% FBS (Hyclone, Logan, Utah).
Jurkat cells were grown to approximately 75% confluency and resuspended in culture media at a density of 1×10^7 cells/ml. A total of 3.6×10^6 cells were employed for each treatment by combining 360 μl of cell suspension with oligonucleotide at the indicated concentrations to reach a final volume of 400 μl. Cells were then transferred to an electroporation cuvette and electroporated using an Electrocell Manipulator 600 instrument (Biotechnologies and Experimental Research, Inc.) employing 150 V, 1000 μF, at 13 Ω. Electroporated cells were then transferred to conical tubes containing 5 ml of culture media, mixed by inversion, and plated onto 10 cm culture dishes.
(§2) Total mRNA was isolated using the RNEASY7 Mini Kit (Qiagen, Valencia, Calif.; similar kits from other manufacturers may also be used), separated on a 1% agarose gel, transferred to HYBOND™-N+ membrane (Amersham Pharmacia Biotech, Piscataway, N.J.), a positively charged nylon membrane, and probed. p38 MAPK probes were made using the Prime-A-Gene7 kit (Promega Corporation, Madison, Wis.), a random primer labeling kit, using mouse p38α or p38β cDNA as a template. A glyceraldehyde 3-phosphate dehydrogenase (G3PDH) probe was purchased from Clontech (Palo Alto, Calif.), Catalog Number 9805-1. The fragments were purified from low-melting temperature agarose, as described in Maniatis, T., et al., Molecular Cloning: A Laboratory Manual, 1989. The G3PDH probe was labeled with REDIVUE™ ^32P-dCTP (Amersham Pharmacia Biotech, Piscataway, N.J.) and Strip-EZ labelling kit (Ambion, Austin, Tex.). mRNA was quantitated by a PhosphoImager (Molecular Dynamics, Sunnyvale, Calif.).
Jurkat cells were grown and treated as described above except the concentration of oligonucleotide was varied as indicated in Table 3. […] Maximum inhibition was approximately 70% with 16500 (SEQ ID NO 17).

[2] = tested on: human p38β mRNA; assay: Inhibition of human p38β mRNA expression in HUVEC cells, Northern blot; type: cell-based; details: 100 nM oligonucleotide in 10 μg/ml LIPOFECTIN, four hours, Northern blot
Procedure: as §1
HUVEC cells were allowed to reach 75% confluency prior to use. The cells were washed twice with warm (37° C.) OPTI-MEM™ (Life Technologies). The cells were incubated in the presence of the appropriate culture medium, without the growth factors added, and the oligonucleotide formulated in LIPOFECTIN7 (Life Technologies), a 1:1 (w/w) liposome formulation of the cationic lipid N-[1-(2,3-dioleyloxy)propyl]-n,n,n-trimethylammonium chloride (DOTMA), and dioleoyl phosphotidylethanolamine (DOPE) in membrane filtered water. HUVEC cells were treated with 100 nM oligonucleotide in 10 μg/ml LIPOFECTIN7. Treatment was for four hours.
as §2
Every oligonucleotide tested gave at least 50% inhibition.
Oligonucleotides 17893 (SEQ ID NO. 27), 17899 (SEQ ID NO:33), 17904 (SEQ ID NO. 38), and 17907 (SEQ ID NO. 41) were chosen for dose response studies. HUVEC cells were cultured and treated as described in Example 2 except that the oligonucleotide concentration was varied as shown in Table 6. The Lipofectin7/Oligo ratio was maintained at 3 μg Lipofectin7/100 nM oligo, per ml. mRNA was measured by Northern blot as described in Example 2.

[3] = tested on: human p38α mRNA; assay: Human p38α mRNA expression in T-24 cells; details: initial screen of human p38α oligonucleotides
[4] = Jurkat cells electroporated with 10 μM oligonucleotide, Northern blot

GTGGAGGCCAGTCCCCGGGA [ISIS 16487]
% mRNA EXPRESSION [1, 4]: 171%

CTTCCACCATGGAGGAAATC (antisense e[5mC]*eT*eT*e[5mC]*e[5mC]*eA*dC*dC*dA*dT*dG*dG*dA*dG*eG*eA*eA*eA*eT*e[5mC]) [ISIS 16504]
% mRNA EXPRESSION [1, 4]: 72% | % mRNA Inhibition [1, 4]: 28%

ACACATGCACACACACTAAC (antisense eA*e[5mC]*eA*e[5mC]*eA*eT*dG*dC*dA*dC*dA*dC*dA*dC*eA*e[5mC]*eT*eA*eA*e[5mC]) [ISIS 16505]
% mRNA EXPRESSION [1, 4]: 93% | % mRNA Inhibition [1, 4]: 7%

ATGTTCTTCCAGTCAACAGC (antisense eA*eT*eG*eT*eT*e[5mC]*dT*dT*dC*dC*dA*dG*dT*dC*eA*eA*e[5mC]*eA*eG*e[5mC]) [ISIS 16498]
% mRNA EXPRESSION [1, 4]: 88% | % mRNA Inhibition [1, 4]: 12%

GAAGTGGGATCAACAGAACA (eG*eA*eA*eG*eT*eG*dG*dG*dA*dT*dC*dA*dA*dC*eA*eG*eA*eA*e[5mC]*eA; antisense) [ISIS 16501]
% mRNA EXPRESSION [1, 4]: 77% | % mRNA Inhibition [1, 4]: 23%

TGTGCCGAATCTCGGCCTCT (antisense eT*eG*eT*eG*e[5mC]*e[5mC]*dG*dA*dA*dT*dC*dT*dC*dG*eG*e[5mC]*e[5mC]*eT*e[5mC]*eT) [ISIS 16490]
% mRNA EXPRESSION [1, 4]: 152% | % mRNA Inhibition [1, 4]: no inhibition | % mRNA EXPRESSION ([1]; Jurkat cells, dose 2.5 nM): 112% | % mRNA EXPRESSION ([1]; Jurkat cells, dose 5 nM): 109% | % mRNA EXPRESSION ([1]; Jurkat cells, dose 10 nM): 104% | % mRNA EXPRESSION ([1]; Jurkat cells, dose 20 nM): 97% | % mRNA Inhibition ([1]; Jurkat cells, dose 20 nM): 3%

AAGACCGGGCCCGGAATTCC (antisense eA*eA*eG*eA*e[5mC]*e[5mC]*dG*dG*dG*dC*dC*dC*dG*dG*eA*eA*eT*eT*e[5mC]*e[5mC]) [ISIS 16486]
% mRNA EXPRESSION [1, 4]: 212%

AACCAGGTGCTCAGGACTCC (antisense eA*eA*e[5mC]*e[5mC]*eA*eG*dG*dT*dG*dC*dT*dC*dA*dG*eG*eA*e[5mC]*eT*e[5mC]*e[5mC]) [ISIS 16500]
% mRNA EXPRESSION [1, 4]: 63% | % mRNA EXPRESSION ([1]; Jurkat cells, dose 2.5 nM): 82% | % mRNA Inhibition ([1]; Jurkat cells, dose 2.5 nM): 18% | % mRNA EXPRESSION ([1]; Jurkat cells, dose 5 nM): 71% | % mRNA Inhibition ([1]; Jurkat cells, dose 5 nM): 29% | % mRNA EXPRESSION ([1]; Jurkat cells, dose 10 nM): 49% | % mRNA Inhibition ([1]; Jurkat cells, dose 10 nM): 51% | % mRNA EXPRESSION ([1]; Jurkat cells, dose 20 nM): 31% | % mRNA Inhibition ([1]; Jurkat cells, dose 20 nM): 69% | Maximum inhibition of p38α mRNA ([1]; Jurkat cells, dose response): approximately 70%

CTTGCCAGATATGGCTGCTG (chemistry not fully specified) [ISIS 17910]
% mRNA EXPRESSION [2]: 26% | % mRNA Inhibition [2]: 74%

TCTGTGACCATAGGAGTGTG (antisense; chemistry not fully specified) [ISIS 17905]
% mRNA EXPRESSION [2]: 14% | % mRNA Inhibition [2]: 86%

GTAAGCTTCTGACATTTCAC (antisense eG*eT*eA*eA*eG*e[5mC]*dT*dT*dC*dT*dG*dA*dC*dA*eT*eT*eT*e[5mC]*eA*e[5mC]) [ISIS 16496]
% mRNA EXPRESSION [1, 4]: 61% | % mRNA EXPRESSION ([1]; Jurkat cells, dose 2.5 nM): 94% | % mRNA Inhibition ([1]; Jurkat cells, dose 2.5 nM): 6% | % mRNA EXPRESSION ([1]; Jurkat cells, dose 5 nM): 74% | % mRNA Inhibition ([1]; Jurkat cells, dose 5 nM): 26% | % mRNA EXPRESSION ([1]; Jurkat cells, dose 10 nM): 47% | % mRNA Inhibition ([1]; Jurkat cells, dose 10 nM): 53% | % mRNA EXPRESSION ([1]; Jurkat cells, dose 20 nM): 41% | % mRNA Inhibition ([1]; Jurkat cells, dose 20 nM): 59%

GTGCTTCAGGTGCTTGAGCA (chemistry not fully specified) [ISIS 17895]
% mRNA EXPRESSION [2]: 25% | % mRNA Inhibition [2]: 75%

TGAAAAGGCCTTCCCCTCAC (antisense eT*eG*eA*eA*eA*eA*dG*dG*dC*dC*dT*dT*dC*dC*e[5mC]*e[5mC]*eT*e[5mC]*eA*e[5mC]) [ISIS 16502]
% mRNA EXPRESSION [1, 4]: 79% | % mRNA Inhibition [1, 4]: 21%

TATGGTCTGTACCAGGAAAC (chimeric deoxy gapped, phosphorothioate, further chemistry not given here) [ISIS 100870]
% P38α mRNA EXPRESSION [3]: 51%

From patent US20040171566A1, “Antisense modulation of p38 mitogen activated protein kinase expression” (priority 1999, published 2004)
